Source: PMC6268061, “Investigation of the Biological Properties of (Hetero)Aromatic Thiosemicarbazones” (Molecules, 2012)
In brackets after ≈: the same amount, converted by molar mass. Several values for one entry are separate records, joined by “and”; a condition that tells them apart may be missing. Identical values can stand only once. Like-named read-outs stand apart in the source and are kept apart here.

Columns and labels:
[1] = Lipophilicity determination using RP-HPLC (capacity factor, log k); type: physicochemical; settings: C18, MeOH 55%/H2O 45%
Text: Reversed phase high performance liquid chromatography (RP-HPLC) methods have become popular and are widely used for lipophilicity measurements. The general procedure is the measurement of the directly accessible retention time under isocratic conditions using varying amounts of methanol as an organic modifier in the mobile phase using RP columns and calculating the logarithm of the capacity factors (log k). Log k is the logarithm of the capacity factors in chromatographic approaches that is related to the partitioning of a compound between a mobile and a (pseudo-)stationary phase. Log k is used as the lipophilicity index converted to log P scale.
A Waters Alliance 2695 XE HPLC separation module and a Waters Photodiode Array Detector 2996 (Waters Corp., Milford, MA, USA) were used. A Symmetry® C18 5 μm, 4.6 × 250 mm, Part No. WAT054275 (Waters Corp.) chromatographic column was used. The HPLC separation process was monitored using Empower™ 2 Chromatography Data Software, Waters 2009 (Waters Corp.). A mixture of MeOH p.a. (55%) and H2O-HPLC-Mili-Q Grade (45%) was used as a mobile phase. The total flow of the column was 0.9 mL/min, injection volume 30 μL, column temperature 30 °C and sample temperature 10 °C. A detection wavelength of 210 nm was chosen. A KI methanolic solution was used for the determination of dead time (tD). Retention times (tR) were measured in minutes. The capacity factors k were calculated using the Empower™ 2 Chromatography Data Software according to the formula k = (tR − tD)/tD, where tR is the retention time of the solute, whereas tD denotes the dead time obtained using an unretained analyte. Log k, calculated from the capacity factor k, is used as the lipophilicity index converted to log P scale.

[2] = test system: Candida albicans ATCC 44859; experiment: In vitro antifungal susceptibility, broth microdilution; type: cell-based; settings: read-out: MIC (IC80) CA
[3] = test system: Candida tropicalis 156; experiment: as above; type: cell-based; settings: read-out: MIC (IC80) CT
[4] = test system: Candida krusei ATCC 6258; experiment: as above; type: cell-based; settings: Pichia kudriavzevii, read-out: MIC (IC80) CK
[5] = test system: Candida glabrata 20/I; experiment: as above; type: cell-based; settings: Nakaseomyces glabratus, read-out: MIC (IC80) CG
[6] = test system: Trichosporon beigelii 1188; experiment: as above; type: cell-based
Text: The broth microdilution test was used for the assessment of the in vitro antifungal activity of the synthesized compounds against Candida albicans ATCC 44859 (CA), Candida tropicalis 156 (CT), Candida krusei ATCC 6258 (CK), Candida glabrata 20/I (CG), Trichosporon beigelii 1188 (TB), Aspergillus fumigatus 231 (AF), Absidia corymbifera 272 (AC), and Trichophyton mentagrophytes 445 (TM). Fluconazole (FLU) was used as the standard since it is a clinically used antimycotic drug. The procedure was performed using a twofold dilution of the compounds in RPMI 1640 (Sevapharma a.s., Prague, Czech Republic) buffered to pH 7.0 with […] of 3-morpholino-propane-1-sulfonic acid (MOPS, Sigma, Prague, Czech Republic). The final concentrations of the compounds ranged from 500 to 0.975 μmol/L. Drug-free controls were included. The determination of minimum inhibitory concentration (MIC) was performed according to the Clinical and Laboratory Standards Institute (CLSI, formerly NCCLS) reference protocol M27-A2 for yeasts (IC80 value) and M38-A for moulds (IC50 value). IC80 and IC50 were defined as an 80% resp. 50% or greater reduction in growth in comparison with the control. The values of MICs were determined after 24 and 48 h of static incubation at 35 °C. The final MICs for T. mentagrophytes, were determined after 72 and 120 h of incubation.

[7] = test system: Aspergillus fumigatus 231; experiment: as above; type: cell-based; settings: read-out: MIC (IC50) AF
[8] = test system: Absidia corymbifera 272; experiment: as above; type: cell-based; settings: read-out: MIC (IC50) AC
[9] = test system: Trichophyton mentagrophytes 445; experiment: as above; type: cell-based; settings: read-out: MIC (IC50) TM
[10] = test system: HCT-116 human colon cancer cells (p53 wild type); experiment: In vitro antiproliferative activity, MTS assay; type: cell-based; settings: read-out: HCT-116 IC50
Procedure: The antiproliferative activity of all of the compounds was examined against the human colon cancer (HCT-116) cell line using an MTS assay. The HCT-116 p53 wild type cell line was chosen on the basis of our former experience and some results on the activity of quinoline-based thiosemicarbazones that was published recently. Namely, compounds 4a–l have been tested previously for their wide-ranging anticancer activity. The antiproliferative activity of the compounds evaluated was assessed using Doxorubicin as a reference compound. In general, quinoline-based thiosemicarbazones 4 seem to have a much better anticancer activity than halogenophenyl compounds 3. Thus, the quinoline nucleus can be defined as being crucial for antiproliferative activity. A more detailed analysis of the anticancer activity of quinoline-based thiosemicarbazone is available. […] Nevertheless, some more general conclusions can be drawn from the gathered data. […] The free amino group or substitution pattern with small substituents such as methyl or ethyl are favorable for activity. According to our former results the chelating ability of the compounds may be one of the prerequisites of the antiproliferative activity. In this study we have measured the UV-VIS spectra of the compounds in presence of various concentration of Fe^3+ cations to observe its chelating potency (supplementary material). […] However as 4j give also two points at 330 and 385 nm, iron chelating ability should be regarded only as one of the factor influencing the biological activity.
The human colon cancer cell line HCT116 with the wild type p53 gene (p53^+/+) were obtained from Maria Sklodowska-Curie Memorial Cancer Center in Gliwice, Poland. Briefly, the cells were seeded in 96-well plates (3 × 10^3 cells/well) in cellular proliferation assays 24 h before the addition of the chelators. The assay was performed following a 72 h incubation with varying concentrations of the agents. Each compound was tested in triplicate in a single experiment with each experiment being repeated 3 times. After 72 h incubation with the compounds being investigated, 20 µL of MTS solution was added to each well (100 µL) and incubated for 1 h at 37 °C. The optical densities of the samples were analyzed at 490 nm. Results were expressed as a percentage of the control. The inhibitory concentration (IC50) was defined as the compound concentration necessary to reduce the absorbance to 50% of the untreated control.

[11] = test system: photosynthetic electron transport (PET) in spinach chloroplasts; experiment: Inhibition of photosynthetic electron transport (PET) in spinach chloroplasts; type: biochemical, Spinacia oleracea L.; settings: DCPIP photoreduction
Procedure: Chloroplasts were prepared from spinach (Spinacia oleracea L.) according to Masarovicova and Kralova. The inhibition of the photosynthetic electron transport (PET) in spinach chloroplasts was determined spectrophotometrically (Genesys 6, Thermo Fisher Scientific, Waltham, MA, USA) using an artificial electron acceptor 2,6-dichlorophenol-indophenol (DCIPP) according to Kralova et al. and the rate of photosynthetic electron transport was monitored as a photoreduction of DCPIP. The measurements were carried out in a phosphate buffer (0.02 mol/L, pH 7.2) containing sucrose (0.4 mol/L), MgCl2 (0.005 mol/L) and NaCl (0.015 mol/L). The chlorophyll content was 30 mg/L in these experiments and the samples were irradiated (~100 W/m^2 with 10 cm distance) with a halogen lamp (250 W) using a 4 cm water filter to prevent warming of the samples (suspension temperature 22 °C). The compounds studied were dissolved in DMSO due to their limited water solubility. […] The inhibitory efficiency of the compounds studied was expressed by IC50 values, i.e., by the molar concentration of the compounds that caused a 50% decrease in the oxygen evolution rate relative to the untreated control.

[12] = ATCC44859, 24 h and 48 h, only one value presented (inactive)
[13] = Candida tropicalis, 156, 24 h and 48 h, only one value presented (inactive)
[14] = ATCC6258, 24 h and 48 h, only one value presented (inactive)
[15] = 24 h and 48 h, only one value presented (inactive)
[16] = Trichosporon beigelii, 1188, 24 h and 48 h, only one value presented (inactive), read-out: MIC (IC80) TB
[17] = Aspergillus fumigatus, 231, 24 h and 48 h, only one value presented (inactive)
[18] = Lichtheimia corymbifera, 272, 24 h and 48 h, only one value presented (inactive)
[19] = Trichophyton mentagrophytes, 445, 72 h and 120 h, only one value presented (inactive)

SMILES	log k [1]	MIC [2, 12]	MIC [3, 13]	MIC [4, 14]	MIC [5, 15]	MIC [6, 16]	IC50 [7, 17]	IC50 [8, 18]	IC50 [9, 19]	IC50 ([10]; HCT-116, 72 h incubation, MTS)	further results
S=C(NN=Cc1ccc2ccccc2n1)Nc1ccccc1 [Compound 4d]	0.7553										
S=C(N/N=C/c1ccc(Br)cc1)Nc1ccccc1 [Compound 3o, (E)-2-(4-bromobenzylidene)-N-phenylhydrazinecarbothioamide]	0.8772	> 500 µM	> 500 µM	> 500 µM	> 500 µM	> 500 µM	> 500 µM	> 500 µM	> 500 µM	> 60 µM	
S=C(N/N=C/c1cccc(Cl)c1Cl)Nc1ccccc1 [Compound 3e, (E)-2-(2,3-dichlorobenzylidene)-N-phenylhydrazinecarbothioamide]	0.9230	> 125 µM	> 125 µM	> 125 µM	> 125 µM	> 125 µM	> 125 µM	> 125 µM	> 125 µM	> 60 µM	IC50 [11]: 499 µM
CNC(=S)N/N=C/c1ccc(Cl)c(Cl)c1 [Compound 3g, (E)-2-(3,4-Dichlorobenzylidene)-N-methylhydrazinecarbothioamide]	0.7563	> 125 µM	> 125 µM	> 125 µM	> 125 µM	> 125 µM	> 125 µM	> 125 µM	> 125 µM	55.5 ± 6.2 µM	IC50 [11]: 136 µM
CNC(=S)N/N=C/c1ccc(Br)cc1 [Compound 3l, (E)-2-(4-bromobenzylidene)-N-methylhydrazinecarbothioamide]	0.6993	> 500 µM	> 500 µM	> 500 µM	> 500 µM	> 500 µM	> 500 µM	> 500 µM	> 500 µM	> 60 µM	
CN(C)C(=S)N/N=C/c1cccc(Cl)c1Cl [Compound 3c, (E)-2-(2,3-Dichlorobenzylidene)-N,N-dimethylhydrazinecarbothioamide]	0.7214	> 125 µM	> 125 µM	> 125 µM	> 125 µM	> 125 µM	> 125 µM	> 125 µM	> 125 µM		
CCNC(=S)NN=Cc1ccc2ccccc2n1 [Compound 4c]	0.6892										
CN(C)C(=O)Nc1ccc(Cl)c(Cl)c1 [DCMU, 3-(3,4-dichlorophenyl)-1,1-dimethylurea, reference compound]											IC50 [11]: ~1.9 µM and 1.9 µM
COc1cccc2c1C(=O)c1c(O)c3c(c(O)c1C2=O)C[C@@](O)(C(=O)CO)C[C@@H]3O[C@H]1C[C@H](N)[C@H](O)[C@H](C)O1 [DXR, doxorubicin, reference compound]											IC50 ([10]; HCT-116, 72 h): 10 ± 1.1 µM
CCNC(=S)NN=Cc1ccc2cccc(O)c2n1 [Compound 4g]	0.6810										
CNC(=S)NN=Cc1ccc2ccccc2n1 [Compound 4a]	0.6329	> 500 µM	> 500 µM	> 500 µM	> 500 µM		> 500 µM	> 500 µM	> 500 µM	> 25 µM	MIC ([6]; Trichosporon beigelii, 1188, read-out: MIC (IC80) TB): > 500 µM
OC(Cn1cncn1)(Cn1cncn1)c1ccc(F)cc1F [FLU, Fluconazole, reference compound]											MIC ([2]; ATCC44859, 24 h): 0.06 µM (≈ 0.0184 µg/mL); MIC ([2]; ATCC44859, 48 h): 0.12 µM (≈ 0.0368 µg/mL); MIC ([3]; Candida tropicalis, 156, 24 h): 0.12 µM (≈ 0.0368 µg/mL); MIC ([3]; Candida tropicalis, 156, 48 h): > 125 µM; MIC ([4]; ATCC6258, 24 h): 3.91 µM (≈ 1.2 µg/mL); MIC ([4]; ATCC6258, 48 h): 15.6 µM (≈ 4.78 µg/mL); MIC ([5]; 24 h): 0.98 µM (≈ 0.3 µg/mL); MIC ([5]; 48 h): 3.91 µM (≈ 1.2 µg/mL); MIC ([6]; Trichosporon beigelii, 1188, 24 h, read-out: MIC (IC80) TB): 0.24 µM (≈ 0.0735 µg/mL); MIC ([6]; Trichosporon beigelii, 1188, 48 h, read-out: MIC (IC80) TB): 0.48 µM (≈ 0.147 µg/mL); IC50 ([7]; Aspergillus fumigatus, 231, 24 h): > 125 µM; IC50 ([7]; Aspergillus fumigatus, 231, 48 h): > 125 µM; IC50 ([8]; Lichtheimia corymbifera, 272, 24 h): > 125 µM; IC50 ([8]; Lichtheimia corymbifera, 272, 48 h): > 125 µM; IC50 ([9]; Trichophyton mentagrophytes, 445, 72 h): 1.95 µM; IC50 ([9]; Trichophyton mentagrophytes, 445, 120 h): 3.91 µM
